Results reported in patent US20240390352A1, “PHARMACEUTICAL COMPOSITION FOR PREVENTING OR TREATING CANCER COMPRISING CARNITINE ACYLCARNITINE CARRIER INHIBITOR AND ANTITUMOR AGENT” (NEW CANCER CURE - BIO CO.,LTD., priority 2021, published 2024).
“And” between values parts separate entries of the source, which are not always exact repeats. Identical values can stand only once. “Also recorded” adds a separate entry of the source.

Legend:
[1] = system: leukemia cells, SR cells and K562 cells; experiment: Synergistic effect of omeprazole and anticancer drug, leukemia cells; type: cell-based; details: anticancer drug combined with omeprazole (KN510) versus each treatment alone
K562 cells = experiment: SRB assay cancer cell growth rate, K562; type: cell-based; details: relative to control (100%), 48 hours, KN510 200 μM, irinotecan 2.5 μM, 5-FU 5 μM, gemcitabine 2.5 μM, paclitaxel 10 nM, cisplatin 1 μM, alone or KN510 + anticancer drug
[2] = system: ovarian cancer cells, OVCAR-8 cells and SK-OV-3 cells; experiment: Synergistic effect of omeprazole and anticancer drug, ovarian cancer cells; type: cell-based; details: anticancer drug combined with omeprazole (KN510) versus each treatment alone
UACC257 cells = experiment: SRB assay cancer cell growth rate, UACC257; type: cell-based; details: relative to control (100%), 48 hours, KN510 200 μM, irinotecan 2.5 μM, 5-FU 5 μM, gemcitabine 2.5 μM, paclitaxel 10 nM, cisplatin 1 μM, alone or KN510 + anticancer drug
[3] = system: pancreatic ductal adenocarcinoma (PDAC) cell lines, MIA PaCa-2 cells and PANC-1 cells; experiment: Synergistic effect of omeprazole and anticancer drug, pancreatic cancer cell lines; type: cell-based; details: anticancer drug combined with omeprazole (KN510) versus each treatment alone
[4] = system: colon cancer cell lines HCT-116 cells and COLO-205 cells; experiment: Synergistic effect of omeprazole and anticancer drug, colon cancer cell lines; type: cell-based; details: anticancer drug combined with omeprazole (KN510) versus each treatment alone
[5] = system: prostate cancer cells, PC-3 cells and DU-145 cells; experiment: Synergistic effect of omeprazole and anticancer drug, prostate cancer cells; type: cell-based; details: anticancer drug combined with omeprazole (KN510) versus each treatment alone
CAKI-1 cells = experiment: SRB assay cancer cell growth rate, CAKI-1; type: cell-based; details: relative to control (100%), 48 hours, KN510 200 μM, irinotecan 2.5 μM, 5-FU 5 μM, gemcitabine 2.5 μM, paclitaxel 10 nM, cisplatin 1 μM, alone or KN510 + anticancer drug
UACC62 cells = experiment: SRB assay cancer cell growth rate, UACC62; type: cell-based; details: relative to control (100%), 48 hours, KN510 200 μM, irinotecan 2.5 μM, 5-FU 5 μM, gemcitabine 2.5 μM, paclitaxel 10 nM, cisplatin 1 μM, alone or KN510 + anticancer drug
[6] = system: melanoma cell lines UACC62 cells and UACC257 cells; experiment: Synergistic effect of omeprazole and anticancer drug, melanoma cell lines; type: cell-based; details: anticancer drug combined with omeprazole (KN510) versus each treatment alone
[7] = system: MKN-28 cells and AGS cells, stomach cancer cells; experiment: Synergistic effect of omeprazole and anticancer drug, stomach cancer cells; type: cell-based; details: anticancer drug combined with omeprazole (KN510) versus each treatment alone
SR cells = experiment: SRB assay cancer cell growth rate, SR; type: cell-based; details: relative to control (100%), 48 hours, KN510 200 μM, irinotecan 2.5 μM, 5-FU 5 μM, gemcitabine 2.5 μM, paclitaxel 10 nM, cisplatin 1 μM, alone or KN510 + anticancer drug
HCT-116 cells = experiment: SRB assay cancer cell growth rate, HCT-116; type: cell-based; details: relative to control (100%), 48 hours, KN510 200 μM, irinotecan 2.5 μM, 5-FU 5 μM, gemcitabine 2.5 μM, paclitaxel 10 nM, cisplatin 1 μM, alone or KN510 + anticancer drug
PC-3 cells = experiment: SRB assay cancer cell growth rate, PC-3; type: cell-based; details: relative to control (100%), 48 hours, KN510 200 μM, irinotecan 2.5 μM, 5-FU 5 μM, gemcitabine 2.5 μM, paclitaxel 10 nM, cisplatin 1 μM, alone or KN510 + anticancer drug
[8] = system: liver cancer cell lines SK-HEP-1 cells and Huh-7 cells; experiment: Synergistic effect of omeprazole and anticancer drug, liver cancer cell lines; type: cell-based; details: anticancer drug combined with omeprazole (KN510) versus each treatment alone
[9] = system: glioblastoma (GBM) cell lines, U-87 MG cells and T87G cells; experiment: Synergistic effect of omeprazole and anticancer drug, glioblastoma cell lines; type: cell-based; details: anticancer drug combined with omeprazole (KN510) versus each treatment alone
[10] = system: renal cell carcinoma cell lines CAKI-1 and ACHN cells; experiment: Synergistic effect of omeprazole and anticancer drug, renal cancer cell lines; type: cell-based; details: anticancer drug combined with omeprazole (KN510) versus each treatment alone
[11] = system: breast cancer cells, MDA-MB-231 cells and MCF-7 cells; experiment: Synergistic effect of omeprazole and anticancer drug, breast cancer cells; type: cell-based; details: anticancer drug combined with omeprazole (KN510) versus each treatment alone
[12] = system: A549 and H23 lung cancer cells; experiment: Synergistic effect of omeprazole and anticancer drug, lung cancer cells; type: cell-based; details: anticancer drug combined with omeprazole (KN510) versus each treatment alone
OVCAR-8 cells = experiment: SRB assay cancer cell growth rate, OVCAR-8; type: cell-based; details: relative to control (100%), 48 hours, KN510 200 μM, irinotecan 2.5 μM, 5-FU 5 μM, gemcitabine 2.5 μM, paclitaxel 10 nM, cisplatin 1 μM, alone or KN510 + anticancer drug
A549 cells = experiment: SRB assay cancer cell growth rate, A549; type: cell-based; details: relative to control (100%), 48 hours, KN510 200 μM, irinotecan 2.5 μM, 5-FU 5 μM, gemcitabine 2.5 μM, paclitaxel 10 nM, cisplatin 1 μM, alone or KN510 + anticancer drug
ACHN cells = experiment: SRB assay cancer cell growth rate, ACHN; type: cell-based; details: relative to control (100%), 48 hours, KN510 200 μM, irinotecan 2.5 μM, 5-FU 5 μM, gemcitabine 2.5 μM, paclitaxel 10 nM, cisplatin 1 μM, alone or KN510 + anticancer drug
[13] = system: MIA PaCa-2 cells xenograft tumor; experiment: Pancreatic cancer xenograft tumor model; type: in vivo, Balb/c nude mice; details: irinotecan 20 mg/kg IP 1 days/week, alone or combined
Experimental: To determine the anticancer synergistic effects of omeprazole (KN510) and irinotecan co-administration in vivo, a pancreatic cancer xenograft tumor model was constructed and administered with the drugs.
Specifically, 6-8 week old Balb/c nude mice (Orient, Korea) were inoculated subcutaneously with MIA PaCa-2 cells (1×10^7) in 100 μl PBS using 1 ml syringe, and when the tumor size reached 100 mm^3, the mice were randomly divided into 4 groups with 4 mice per group, and then treated with drugs as shown in Table 14 below.
We also performed two separate experiments with omeprazole (KN510), one at a concentration of 50 mg/kg and the other at 100 mg/kg. • 1) Control (solvent treatment) • 2) Omeprazole (KN510) alone (50 mg/kg or 100 mg/kg, P.O. injection), • 3) Irinotecan alone (20 mg/kg, I.P injection), • 4) Omeprazole (KN510) (50 mg/kg or 100 mg/kg)+irinotecan (20 mg/kg/) as a combination treatment group
Primary tumor size was measured weekly using calipers. Tumor volumes were calculated using Equation 1 below, and data are expressed as mean (mean)+standard deviation (SD) values of mouse tumor volume per group.

[14] = experiment with KN510 50 mg/kg PO 5 days/week
[15] = experiment with KN510 100 mg/kg PO 5 days/week

Row | Structure (SMILES) | synergistic effect of omeprazole and an anticancer drug in combination, leukemia [1] | K562 growth rate average (%) (K562 cells) | synergistic effect of omeprazole and an anticancer drug in combination, ovarian cancer [2] | UACC257 growth rate average (%) (UACC257 cells) | synergistic effect of omeprazole and an anticancer drug in combination, pancreatic cancer (PDAC) [3] | synergistic effect of omeprazole and an anticancer drug in combination, colon cancer [4] | synergistic effect of omeprazole and an anticancer drug in combination, prostate cancer [5] | CAKI-1 growth rate average (%) (CAKI-1 cells) | UACC62 growth rate average (%) (UACC62 cells) | synergistic effect of omeprazole and an anticancer drug in combination, melanoma [6] | synergistic effect of omeprazole and an anticancer drug in combination, stomach cancer [7] | SR growth rate average (%) (SR cells) | HCT-116 growth rate average (%) (HCT-116 cells) | PC-3 growth rate average (%) (PC-3 cells) | synergistic effect of omeprazole and an anticancer drug in combination, liver cancer [8] | synergistic effect of omeprazole and an anticancer drug in combination, glioblastoma (GBM) [9] | synergistic effect of omeprazole and an anticancer drug in combination, renal cell carcinoma [10] | synergistic effect of omeprazole and an anticancer drug in combination, breast cancer [11] | OVCAR-8 growth rate average (%) (OVCAR-8 cells) | A549 growth rate average (%) (A549 cells) | also measured
1 | O=c1[nH]cc(F)c(=O)[nH]1 [5-FU, fluorouracil] | significantly inhibited; also recorded: Positive effect | 99.83% | Negative effect | 62.17% | Negative effect | significantly inhibited; also recorded: Positive effect | Negative effect | 47.91% | 52.14% | significantly inhibited; also recorded: Positive effect | Negative effect | 96.15% | 41.59% | 55.19% | significantly inhibited; also recorded: Positive effect | Negative effect | significantly inhibited; also recorded: Positive effect | Negative effect | 27.12% | 27.36% | synergistic effect of omeprazole and an anticancer drug in combination, lung cancer [12]: significantly inhibited; also recorded: Positive effect; ACHN growth rate average (%) (ACHN cells): 48.97%
2 | N.N.[Cl][Pt][Cl] [Cisplatin] | Positive effect | 102.62% | Positive effect | 76.16% | Negative effect | Negative effect | Negative effect | 88.17% | 62.76% | Negative effect | Negative effect | 93.52% | 100.00% | 82.60% | Negative effect | Negative effect | Negative effect | Negative effect | 51.47% | 99.46% | synergistic effect of omeprazole and an anticancer drug in combination, leukemia ([1]; listed as cisplatin): significantly inhibited; synergistic effect of omeprazole and an anticancer drug in combination, ovarian cancer ([2]; listed as cisplatin): significantly inhibited; synergistic effect of omeprazole and an anticancer drug in combination, lung cancer [12]: Negative effect; ACHN growth rate average (%) (ACHN cells): 78.57%
3 | Nc1ccn([C@@H]2O[C@H](CO)[C@@H](O)C2(F)F)c(=O)n1 [Gemcitabine] | Negative effect | 53.51% | Negative effect | 30.97% | Negative effect | Negative effect | Negative effect | 2.30% | 53.65% | Negative effect | Negative effect | 53.15% | 16.32% | 32.17% | Negative effect | Negative effect | Negative effect | Negative effect | −14.25% | −16.60% | synergistic effect of omeprazole and an anticancer drug in combination, lung cancer [12]: Negative effect; ACHN growth rate average (%) (ACHN cells): −2.82%
4 | COc1ccc2[nH]c([S+]([O-])Cc3ncc(C)c(OC)c3C)nc2c1 (stereo not drawn) [KN510, omeprazole] | – | 34.61% | – | 10.97% and 3.31% and 3.10% and 4.33% | – | – | – | 41.69% and 35.30% | – | – | – | 42.75% | 35.30% | 12.70% | – | – | – | – | 30.64% and 38.65% | 10.47% | Tumor volume, 2 week average [13, 14]: 143.01 mm^3; Tumor volume, 2 week average [13, 15]: 93.96 mm^3; Tumor volume, 3 week average [13, 14]: 675.69 mm^3; Tumor volume, 3 week average [13, 15]: 229.95 mm^3; Tumor volume, 4 week average [13, 14]: 965.63 mm^3; Tumor volume, 4 week average [13, 15]: 469.90 mm^3; Tumor volume, 5 week average [13, 14]: 1296.93 mm^3; Tumor volume, 5 week average [13, 15]: 843.25 mm^3
